# According to US20130337020A1, “Pharmaceutical Compositions” (Alpharma Pharmaceuticals LLC, priority 2006, published 2013):
# Tested on: not given
# Settings: in comparison to a 15 mg dose of hydrocodone
row,Compound,"Equianalgesic Doses of Opioids, Calculated Dose [mg]"
1,Meperidine,135.0
2,CN1CC[C@]23CCCC[C@H]2[C@H]1Cc1ccc(O)cc13 [Levorphanol],1.8
3,"COc1ccc2c3c1OC1C(=O)CC[C@H]4[C@@H](C2)N(C)CC[C@]314 (stereo partly shown) [Hydrocodone, 4,5-epoxy-3-methoxy-17-methylmorphinan-6-one]",15.0
4,COc1ccc2c3c1O[C@H]1[C@@H](O)C=C[C@H]4[C@@H](C2)N(C)CC[C@@]341 [Codeine],90.0
5,CCC(=O)C(CC(C)N(C)C)(c1ccccc1)c1ccccc1 (stereo not shown) [Methadone],9.0
6,"COc1ccc2c3c1OC1C(=O)CC[C@@]4(O)[C@@H](C2)N(C)CC[C@]314 (stereo partly shown) [Oxycodone, 4,5-epoxy-14-hydroxy-3-methoxy-17-methylmorphinan-6-one]",13.5

# Tested on: opioid receptors
# Settings: cited from earlier work
row,Compound,antagonist potency relative to naltrexone [%]
1,Oc1ccc2c3c1O[C@H]1[C@H](O)CC[C@@]4(O)[C@@H](C2)N(CC2CC2)CC[C@]314 [6-β-naltrexol],2 to 4
